Measured values reported in PubChem BioAssay (NCI).
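Five concentrations, 48 hours, 96-well plates. TGI: total growth inhibition.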

How the values were obtained:
Test in all cases: NCI tumour cell line growth inhibition, 48 h
[1] = tested on: HOP-18 NSCLC
[2] = tested on: M19-MEL melanoma
[3] = tested on: SK-MEL-28 melanoma
[4] = tested on: MCF7 breast
[5] = tested on: OVCAR-3 ovarian
[6] = tested on: HCT-15 colon
[7] = tested on: HOP-92 NSCLC
[8] = tested on: A549 NSCLC
[9] = tested on: HL-60(TB) leukemia
[10] = tested on: SK-MEL-5 melanoma
[11] = tested on: UACC-62 melanoma
[12] = tested on: UO-31 renal
[13] = tested on: NCI-H460 lung
[14] = tested on: SNB-19 CNS
[15] = tested on: DLD-1 colon
[16] = tested on: DMS 273 small cell lung
[17] = tested on: XF 498 CNS
[18] = tested on: CAKI-1 renal
[19] = tested on: HCC-2998 colon
[20] = tested on: NCI-H23 lung
[21] = tested on: SN12C renal
[22] = tested on: P388/ADR leukemia
[23] = tested on: SN12K1 renal
[24] = tested on: U251 CNS
[25] = tested on: MOLT-4 leukemia
[26] = tested on: HOP-62 NSCLC
[27] = tested on: DMS 114 small cell lung
[28] = tested on: COLO 205 colon
[29] = tested on: RXF 393 renal
[30] = tested on: RPMI-8226 leukemia
[31] = tested on: OVCAR-8 ovarian
[32] = tested on: HT29 colon
[33] = tested on: OVCAR-4 ovarian
[34] = tested on: A498 renal
[35] = tested on: NCI-H226 lung
[36] = tested on: SW-620 colon
[37] = tested on: SK-OV-3 ovarian
[38] = tested on: KM20L2 colon
[39] = tested on: MALME-3M melanoma
[40] = tested on: K-562 leukemia
[41] = tested on: NCI/ADR-RES ovarian
[42] = tested on: SF-539 CNS
[43] = tested on: SK-MEL-2 melanoma
[44] = tested on: SNB-75 CNS
[45] = tested on: HCT-116 colon
[46] = tested on: KM12 colon
[47] = tested on: NCI-H522 lung
[48] = tested on: UACC-257 melanoma
[49] = tested on: CCRF-CEM leukemia
[50] = tested on: LOX IMVI melanoma
[51] = tested on: SNB-78 CNS
[52] = tested on: OVCAR-5 ovarian
[53] = tested on: SF-295 CNS
[54] = tested on: EKVX NSCLC
[55] = tested on: IGROV1 ovarian
[56] = tested on: SF-268 CNS

## COc1cccc2c1C(=O)c1c(O)c3c(c(O)c1C2=O)CC(O)(C(=O)CO)CC3OC1CC(N)C(I)C(C)O1 (stereo unspecified)
[1]
  TGI: 65.7 µM
[2]
  TGI: 30.7 µM
[3]
  TGI: > 100 µM
[4]
  TGI: 29.4 µM
[5]
  TGI: > 57.6 µM
[6]
  TGI: 14.6 µM
[7]
  TGI: > 63 µM
[8]
  TGI: > 55.1 µM
[9]
  TGI: > 100 µM
[10]
  TGI: 14.5 µM
[11]
  TGI: 7.43 µM
[12]
  TGI: 17.5 µM
[13]
  TGI: 12.6 µM
[14]
  TGI: > 100 µM
[15]
  TGI: 13.7 µM
[16]
  TGI: 7.03 µM
[17]
  TGI: 22.2 µM
[18]
  TGI: > 100 µM
[19]
  TGI: 27.1 µM
[20]
  TGI: 15.1 µM
[21]
  TGI: > 63.8 µM
[22]
  TGI: > 20.1 µM
[23]
  TGI: > 37.2 µM
[24]
  TGI: 19.3 µM
[25]
  TGI: > 100 µM
[26]
  TGI: 13.9 µM
[27]
  TGI: > 30.2 µM
[28]
  TGI: > 100 µM
[29]
  TGI: 25.2 µM
[30]
  TGI: > 100 µM
[31]
  TGI: 34.1 µM
[32]
  TGI: > 100 µM
[33]
  TGI: 26.9 µM
[34]
  TGI: 21.4 µM
[35]
  TGI: 2.95 µM
[36]
  TGI: > 100 µM
[37]
  TGI: 18.6 µM
[38]
  TGI: > 54.2 µM
[39]
  TGI: 25.1 µM
[40]
  TGI: > 100 µM
[41]
  TGI: > 31.6 µM
[42]
  TGI: 11.8 µM
[43]
  TGI: 30.4 µM
[44]
  TGI: > 100 µM
[45]
  TGI: 6.12 µM
[46]
  TGI: > 100 µM
[47]
  TGI: > 100 µM
[48]
  TGI: > 52.3 µM
[49]
  TGI: > 100 µM
[50]
  TGI: 9.15 µM
[51]
  TGI: > 100 µM
[52]
  TGI: > 54.6 µM
[53]
  TGI: 23.3 µM
[54]
  TGI: > 55.5 µM
[55]
  TGI: 18.4 µM
[56]
  TGI: > 100 µM
